Results reported in PubChem BioAssay (NCI).
Values joined by “and” are separate entries in the source; they are usually repeats but may differ in a detail not shown here. Equal entries are not always repeated.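 Exposure lasted 48 hours, with cells grown in 96-well plates and compounds tested at five concentrations. GI50 marks 50% less growth. The concentration for full growth arrest is given as TGI.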

Test system: MDA-MB-468 breast
Assay: DTP human tumour cell line panel, 48 h

Structure (SMILES) | GI50 | TGI
Cc1cc([N+](=O)[O-])c2ccccc2[n+]1[O-] | 180 nM and 121 nM | 512 nM and 369 nM
O=C(COc1cccc(/C=C2\CSc3ccccc3C2=O)c1)Nc1nccs1 | 1590 nM | 3150 nM
O=C(CN1C(=O)S/C(=C\C(Cl)=C\c2ccccc2)C1=O)NC1C=CS(=O)(=O)C1 (configuration not stated) | 531 nM | 2290 nM
COc1cc2nc3cc([N+](=O)[O-])ccc3c(NCCNCC(C)(C)O)c2cc1OC | 220 nM | 614 nM
O=C1Cc2cc(C(=O)NC3C[C@H]4CC[C@@H](C3)N4S(=O)(=O)CC3CCN(CCCC(F)(F)F)CC3)c(Cl)cc2N1 (some centres not stated) | 27000 nM | > 100000 nM
CC[C@H](C)[C@H](NC(=O)CN(C)C)C(=O)N(C)[C@H](C[C@@H](OC(C)=O)c1nc(C(=O)NC23CC(C(=O)OC)(C2)C3)cs1)C(C)C | 130 nM | > 25000 nM
CN(Cc1cnc2nc(N)nc(N)c2n1)c1ccc(C(=O)NC(CCC(=O)O)C(=O)O)cc1Br (configuration not stated) | < 10 nM | 1910 nM
Cn1ncc(Cl)c1-c1cc(C(=O)N[C@H](CN)Cc2ccc(F)c(F)c2)oc1Cl | < 16.9 nM and 19.4 nM | 282 nM and 458 nM
Oc1[nH]c2ccccc2c1/C=c1/cc2c(c(-c3ccc(F)cc3)n1)=Nc1ccccc1-2 | 282 nM | 978 nM
O=C1NC(=NCCCc2ccccc2)S/C1=C\c1ccc2ncccc2c1 | 4370 nM | 17400 nM
COc1cc(-c2nn(-c3cccc(NC(=O)c4ccc(Cl)c(C(F)(F)F)c4)c3)cc2-c2ccncc2)ccc1Cl | 2740 nM | > 32500 nM
NC(=S)c1c(N)n(C2OC(CO)C(O)C2O)c2ncnc(N)c12 (configuration not stated) | 135 nM | 326 nM
Cn1c(-c2c(N)n(CCCN3CCOCC3)c3nc(C#N)c(C#N)nc23)nc2ccccc21 | 4640 nM | > 100000 nM
O=[N+]([O-])c1cccc(C2CC(c3ccccc3)=Nc3ccccc3S2)c1 (configuration not stated) | 13400 nM | 31200 nM
O=C1/C=C/[C@@H](O)[C@@H]2C[C@@H](O)C[C@H]2/C=C/CCC[C@H](C(F)(F)F)O1 | 23.3 nM | 69.1 nM
CC1OC(O[C@@H]2[C@H](O)C(CO)OC(O[C@H]3COC(O[C@H]4CC[C@]5(C)[C@H]6CC[C@]78OC[C@@]9(CCC(C)(C)C[C@H]97)[C@H](O)C[C@@]8(C)[C@]6(C)CC[C@H]5C4(C)C)[C@@H](OC4OC(CO)[C@@H](O)[C@@H](O)[C@@H]4O)[C@@H]3O)[C@H]2OC2OC[C@@H](O)[C@@H](O)[C@@H]2O)[C@@H](O)[C@@H](O)[C@H]1O (some centres not stated) | 2110 nM | 4330 nM
COc1ccc(N(C)c2nc(N)nc3sc4c(c23)CCCC4)cc1 | < 10 nM | 
COc1ccc(/C(C#N)=C2C=C/C(=N/O)c3ccccc3\2)cc1 | 395 nM | 16500 nM
COc1ccc2c(OCc3nnc4ccc(-c5ccccc5)nn34)ccnc2c1 | 3220 nM | > 100000 nM
CC[n+]1c(/C=C/C=C2\N(C)c3ccccc3C2(C)C)sc2ccccc21 | 2770 nM | 8440 nM
CCN1CCN(C(=O)[C@]23CCC(C)(C)C[C@@H]2C2=CC[C@@H]4[C@@]5(C)C/C(=C/c6ccncc6)C(=O)C(C)(C)[C@@H]5CC[C@@]4(C)[C@]2(C)CC3)CC1 | 1430 nM | 3140 nM
CC(=O)[O][Hg][c]1c(C)c(C)cc(C)c1C | 793 nM | 2150 nM
Cc1cc(Cl)nc(N(CCCNc2ccnc3cc(Cl)ccc23)Cc2ccco2)n1 | 1120 nM | 3940 nM
COc1nnc2ccc(N3CCC(c4ccc(OCCN5CCN(C)C(=O)[C@H]5C)cc4)CC3)nn12 | 52 nM | > 34800 nM
CCn1c(-c2nonc2N)nc2cncc(C(=O)N3CC[C@H](N)C3)c21 | 4570 nM | 24500 nM

Structure (SMILES) | GI50 | TGI
CC(=O)c1c(C)[nH]c(-c2nc3ccc(N4CCN(C)CC4)cc3[nH]2)c1-c1ccccc1 | 361 nM | 9270 nM
CO[C@H]1C[C@@H]2CC[C@@H](C)[C@@](O)(O2)C(=O)C(=O)N2CCCC[C@H]2C(=O)O[C@H]([C@H](C)C[C@@H]2CC[C@@H](OCCO)[C@H](OC)C2)CC(=O)[C@H](C)C=C(C)[C@@H](O)[C@@H](OC)C(=O)[C@H](C)C[C@H](C)/C=C/C=C/C=C1C | < 11.7 nM | 14900 nM
c1ccc2c3c([nH]c2c1)C(c1ccc(C2NCCc4c2[nH]c2ccccc42)cc1)NCC3 (configuration not stated) | 367 nM | 1340 nM
C=CC(=O)N1CC2(CC(n3nc(-c4ccc5c(cnn5C)c4)c(-c4c(Cl)c(C)cc5[nH]ncc45)c3C)C2)C1 | 2670 nM | 9270 nM
CN(CC(=O)N(Cc1ccc(C2CCCCC2)cc1)c1ccc(C(=O)O)cc1)S(=O)(=O)c1c(F)c(F)c(F)c(F)c1F | 1760 nM | 3270 nM
N#CC1c2ccccc2C=CN1C(=O)N(c1ccccc1)c1ccccc1 (configuration not stated) | 1700 nM | 3400 nM
Cn1ncc2ncc(-c3ccc4ncc(C#N)c(N5CCc6cc(F)c(Cl)cc65)c4c3)cc21 | 2440 nM | 10600 nM
CN1CSC(=S)N(Cc2ccccc2)C1 | 2020 nM | 6030 nM
O=C(Nc1nc2ccccc2s1)Nc1ccc([N+](=O)[O-])cc1Cl | 10100 nM | 27200 nM
CCN(CC)Cc1cc2[nH]c3c4ccc(Cl)cc4ncc3c2cc1OC | 1870 nM and 1520 nM | 3640 nM and 3000 nM
Cn1cc(C2=C(c3cn(CCCCCSC(=N)N)c4ccccc34)C(=O)NC2=O)c2ccccc21 | 1550 nM | 5460 nM
COc1cc2c(=O)[nH]c3cc([N+](=O)[O-])ccc3c2cc1[N+](=O)[O-] | 1030 nM | 4180 nM
N=c1c2c(=N)n3c(nc2nc2n1-c1ccccc1Sc1ccccc1-2)sc1cc(Cl)ccc13 | 1340 nM | 5410 nM
COC(=O)c1ccc(NC(=O)Oc2ccc(N(CCCl)CCCl)cc2)cc1 | 1220 nM | 9770 nM
CN1CCN(c2nc(-c3cnc4ccccc4n3)cc3ccccc23)CC1 | 4980 nM | 10600 nM
CCCCCCCCCCCC[n+]1ccc2ccccc2c1 | 206 nM | 808 nM
CN1CCN(CCCOc2cccc3nc(Nc4ccc(Cl)c(C(F)(F)F)c4)ccc23)CC1 | 1600 nM | 3220 nM
CN(CCCNC(=O)CCOCCOCCOCCNC(=O)Cc1ccc2ccc3cccc4ccc1c2c34)CCCNc1cc(-c2ccc3ccccc3c2)nc2ccccc12 | 509 nM | 1030 nM
COc1ccc(N=N/C(C(=O)C(F)(F)F)=C(\O)c2ccc(Cl)cc2)cc1 | 1840 nM | 5680 nM
CCOC(=O)c1cnc2c(C)cccc2c1Nc1ccc(C(C)=O)cc1 | 26300 nM | > 100000 nM
COC(=O)[C@H]1CCCN1C(=O)[C@H]1CCCN1C(=O)[C@H](Cc1c[nH]c2ccccc12)NC(=S)Nc1cc(C(F)(F)F)cc(C(F)(F)F)c1 | 3680 nM | 68800 nM
CSc1ccc2c(c1)C(N1CCN(C)CC1)Cc1ccccc1S2 (configuration not stated) | 1470 nM | 3060 nM
O=c1oc2ccc(-c3ccc(F)cc3F)cc2c(=O)n1-c1ccc(F)c(F)c1 | 1010 nM | 4230 nM
CC[C@H](C)[C@H](NC(=O)[C@H]1CCCCN1C)C(=O)N(C)[C@H](C[C@@H](OC(C)=O)c1nc(C(=O)N[C@@H](Cc2ccccc2)C[C@H](C)C(=O)O)cs1)C(C)C | 0.378 nM and 1.65 nM | 3.98 nM
